Reference: patent publication US6458590B1, “Methods and compositions for treatment of restenosis” (The United States of America, as represented by the …, priority 1997, dated 2002)

How the values were obtained:
[1] = test system: OPN; assay: OPN expression in lipofected CASMCs (immunoprecipitation, Western blot); type: cell-based, human
Procedure: (§1) CASMCs (Clonetics) were transfected with a “LIPOFECTIN”-oligonucleotide complex according to the manufacturer's (GIBCO-BRL Life Technologies, Inc. Gaithersburg, Md.) specifications. Briefly, 5 μg of “LIPOFECTIN” was mixed with either 1 or 2 μg of antisense oligonucleotide in 200 μl of serum free medium (SFM) (also called basal medium) and incubated at room temperature for 15 min. Cells (1×10^5 cells/well, 12-well plate) during log phase of growth were washed with SFM and 1 ml of SFM containing Lipofectin with different amounts of antisense S-oligonucleotides was added to each well and mixed by gentle agitation. The cells were incubated further with the same medium at 37° C. for 12 h. Additional control cells which received either SFM, or SFM which contained “LIPOFECTIN” alone, were also included. […] The SFM medium containing “LIPOFECTIN”-oligonucleotide complex was removed, and the cells incubated for an additional 48 h in regular medium. At the end of this incubation period, the cells were ready for the determination of a dose response on OPN expression as measured by Western blotting.
The effect of antisense OPN sequences on OPN expression was determined by Western blot analysis as described above. […]

[2] = test system: human coronary artery smooth muscle cells (CASMCs); assay: Proliferation of CASMCs after lipofection with OPN oligonucleotides ([3H]-thymidine); type: cell-based; conditions: oligonucleotide 1.5 μg/200 μl with LIPOFECTIN 5 μg/200 μl
Procedure: as §1
The effect of antisense ASHOPN-P1 on the proliferation of human coronary artery smooth muscle cells (CASMCs) was determined as described supra. […] The acid precipitable radioactivity was measured using a scintillation beta counter (Beckman).

[3] = test system: OPN; assay: OPN production in PMA-stimulated CASMCs (immunoprecipitation, Western blotting); type: cell-based, human; conditions: 250 nM PMA, 37° C., 24 h
Procedure: An in vitro assay was used in order to determine whether an increase in OPN gene expression is detectable. Since phorbol myristate acetate (PMA) is known to induce OPN gene expression, CASMCs were stimulated with PMA, and OPN production was detected by immunoprecipitation of cell lysates followed by Western blotting.
CASMCs were incubated with Phorbol 12-myristate 13-acetate (PMA) (250 nM) at 37° C. for 24 h. The cells were immunoprecipitated using a kit according to manufacturer's (Boehringer Mannheim) instructions. Briefly, the cells were lysed with lysis buffer, centrifuged and the supernatant incubated with rabbit OPN-antibody for 1 h then with protein A-agarose at 4° C. overnight. Bound complexes were pelleted by centrifugation, washed and electrophoresed. Western blot analysis was done as described, supra.

[4] = test system: CASMCs; assay: CASMC proliferation assay ([3H]thymidine); type: cell-based, human
Procedure: CASMCs were cultured as described above and the cells were starved in serum free media for 48 h. The proliferation assays were performed as described previously (Monfardini et al., (1995) J. Biol. Chem. 270:6628-6638). Briefly, the cells were incubated in the absence or presence of PDGF-AB (100 ng/ml) (Upstate Biotechnology, Lake Placid, N.Y.) and increasing concentrations of OPN (1.0-6.0 μg/ml) at 37° C. for 24 h. In separate experiments, cells were pre-treated with either mouse anti human αvβ3-antibody (5 μg/ml), preimmune IgG or GRGDS peptide (10 nM) followed by OPN (3.0 μg/ml). After 4 h, [3H]thymidine (1 μCi/ml) was added and the cells were maintained in culture for an additional 24 h under the same culture conditions as described previously. After removing the supernatants, the cells were washed with basal medium and lysed in 50% TCA. The acid precipitable cell-bound radioactivity was measured using a scintillation counter (Beckman).

[5] = test system: human CASMC; assay: CASMC migration assay (Transwell); type: cell-based; conditions: OPN 0.68 or 1.36 μg/ml as chemoattractant, 24 h
Procedure: Migration of CASMC was performed using Transwell cell culture chambers with an […] pore size polycarbonate membrane (Costar) as described previously (Yue et al., (1994) Exptl. Cell Res. 214:459-464). Briefly, sub-confluent human CASMC were trypsinized, centrifuged and resuspended in basal medium (SmBM) supplemented with 0.2% BSA. This was followed by the addition of 0.25 ml of cell suspension (5×10^4 cells) to the upper compartnent of the chamber. The lower compartment contained 0.5 ml of basal medium supplemented with 0.2% BSA together with 0.68 μg/ml OPN, 1.36 μg/ml OPN, or buffer alone. After incubation at 37° C. for 24 h., the non-migrated cells on the upper surface of the filters were scraped and washed. The migrated cells were fixed in methanol, stained with Giemsa stain, counted under an inverted microscope and photomicrographed (120×) using a Zeiss photomicroscope (Axiovert 405 M). In separate experiments, cells in the upper compartment were also treated with monoclonal mouse anti-human αvβ3-antibody (Chemicon) (10 μg/ml) before being assayed for migration in order to ascertain whether this OPN-stimulated migration is mediated via αvβ3. Preimmune IgG treatment served as a non-specific control.

[6] = test system: CASMC; assay: ECM-invasion assay (matrigel-coated invasion chamber); type: cell-based, human; conditions: OPN 0.5-2.0 μg/ml, 24 h
Procedure: The ECM-invasion assay was performed using a commercially available 24-well matrigel-coated invasion chamber (Collaborative Research) as described previously (Kundu et al., (1996) Proc. Natl. Acad. Sci. (USA) 93:2915-2919). Briefly, the confluent CASMC were trypsinized, centrifuged, and resuspended in basal medium supplemented with 0.1% BSA. The lower compartment of the invasion chamber was filled with fibroblast-conditioned medium (FCM) which served as a chemoattractant. The invasion assays were initiated by inoculating the upper chamber with cells (1×10^5/well) which were either untreated or treated with varying concentrations of OPN (0.5-2.0 μg/ml). After incubating at 37° C. for 24 h, the cells in the upper chamber were discarded, the matrigel was scraped clear and the cells which had invaded the matrigel and migrated to the lower surface of the filter, were fixed, stained, counted and photomicrographed (120×) as described above. The cells were also pre-treated with mouse anti-human αvβ3 antibody (Chemicon) (10 μg/ml) as described above to determine if the OPN-induced invasion was mediated via αvβ3. Preimmune IgG was used as a non-specific control.

With “5′-AATCACTGCAATTCTCATGG-3′ (all phosphorothioate, sugars by position and methylation of C not given here; listed as Homo sapiens) [ASHOPN-P1]” the “expression of OPN by CASMCs” value ([1]; 1 or 2 μg S-oligonucleotide with LIPOFECTIN, versus LIPOFECTIN-treated or sense-treated cells) was “capable of inhibiting expression of OPN”, the “specificity of the antisense effect” value ([1]; compared with OPN sense-treated cells) was “specific” and the “inhibition of cell proliferation as compared to cells treated with LIPOFECTIN alone” value [2] was 82%.

With “5′CCATGAGAATTGCAGTGATT-3′ (all phosphorothioate, sugars by position and methylation of C not given here; listed as Homo sapiens) [SHOPN, reference compound]” the “inhibition of cell proliferation as compared to cells treated with LIPOFECTIN alone” value [2] was “about 50%”.

In the case of `CCCCCCCCCCCCCC(=O)O[C@@H]1[C@@H](C)[C@@]2(O)[C@@H](C=C(CO)C[C@]3(O)C(=O)C(C)=C[C@@H]23)[C@@H]2C(C)(C)[C@]12OC(C)=O` [PMA, Phorbol 12-myristate 13-acetate], the “level of OPN protein in stimulated cells versus unstimulated cells” value [3] is reported as “markedly higher”.

With “Gly-Arg-Gly-Asp-Ser (GRGDS) [reference compound]” the “effect on OPN-induced proliferation” value ([4]; pre-treatment: αvβ3-antibody 5 μg/ml or GRGDS 10 nM, then OPN 3.0 μg/ml) was “drastically inhibited”.

In the case of osteopontin [OPN], the CASMC proliferation ([4]; OPN 1.0-6.0 μg/ml) is reported as “stimulated their proliferation in a dose-dependent manner”, the “CASMC proliferation, OPN in conjunction with PDGF-AB” value ([4]; with 100 ng/ml of PDGF-AB) is reported as “dramatic dose-dependent effect” and the “CASMC proliferation, OPN alone” value ([4]; without PDGF-AB) is reported as “modest proliferative response”. The “rate of migration of CASMCs” value [5] was “enhanced with increasing concentrations” and the “invasiveness of CASMCs on MATRIGEL” value [6] was “enhanced their invasiveness”.

“platelet-derived growth factor-AB [PDGF-AB, reference compound]” was tested, and the “CASMC proliferation, PDGF-AB alone” value ([4]; PDGF-AB 100 ng/ml, without OPN) was “virtually no effect”.
